Experimental data taken from patent publication US7439359B2, “Small molecule compositions for binding to hsp90” (Sloan-Kettering Institute for Cancer Research, priority 2000, dated 2008).
Where two headings read alike, the source gives them in different places.

Experiments:
[1] = system: MDA-MB-468; experiment: Growth inhibition, sulforhodamine B assay; assay type: cell-based, human; settings: for IC50: unit inferred
Text: (§1) Protein Assays. […] Antiproliferative index. […] Tissue Culture IC50 Studies. […] Her2 degradation. Total Protein Assays. […] Binding studies. Solid phase competition assays.

[2] = system: MCF-7; experiment: Growth inhibition, sulforhodamine B assay; assay type: cell-based, human; settings: unit inferred
Text: as §1

[3] = target: Hsp90alpha (Homo sapiens, UniProt P07900); experiment: Solid phase competition assay with GM-beads, Hsp90 alpha immunoblot; assay type: binding; set-up: purchased Stressgen SPP-770; settings: for EC50: competition with immobilized GM, unit inferred, read-out: EC50 Hsp90 α
Experimental: (§2) A test was also designed which allows identification of compounds which interact differentially with Hsp90-alpha and Hsp90-beta. […] An Hsp90 protein preparation containing both the alpha and the beta form is incubated with the support in the presence or absence of a compound to be evaluated. […] After washing, the material bound to the support is eluted and the eluate is separated on an SDS/PAGE gel and visualized by immunoblotting with anti-Hsp90-alpha and anti-Hsp90-beta to determine the amount of material bound. Alternatively, if quantitative amounts of the Hsp90 protein preparation or known ratios of alpha to beta forms of Hsp90 are used in the first instance, the unbound material can be analyzed by a similar technique.
as §1

[4] = target: T1, Hsp90 beta (Homo sapiens, UniProt P08238); experiment: Solid phase competition assay with GM-beads, Hsp90 beta immunoblot; assay type: binding; settings: for EC50: competition with immobilized GM, unit inferred, read-out: EC50 Hsp90 β
T1 construct: purchased Stressgen SPP-770
Experimental: as §2, §1

[5] = system: Her2; experiment: Her2 total protein degradation in MCF-7 cells (immunoblot);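 note: Her2 levels judged by SDS-PAGE western blot of whole-cell lysates probed with anti-Her2 antibody, compared with DMSO vehicle-treated cells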
Experimental: For assays on protein levels, cells were grown to 60-70% confluence exposed to drugs or DMSO vehicle for the indicated time periods. Lysates were prepared using 50 mM Tris pH=7.4, 2% SDS and 10% glycerol lysis buffer. Protein concentration was determined using the BCA kit (Pierce Chemical Co.), according to the manufacturers instructions. Clarified protein lysates (20-50 mg) were electrophoretically resolved on denaturing SDS-PAGE, transferred to nitrocellulose and probed with the following primary antibodies: anti-Her2 (C-18), -Her3 (C-17), -Raf-1, -cyclin D1, -Rb (C-15) (Santa Cruz), anti-hsp90, -hsp70, -ER (Stressgen), anti-Trap-1 (MSK81), anti-b-actin, -tubulin (Sigma), anti-PI3K (p85) (Upstate Biotechnologies).
After 24 hours, the cells were lysed and the amount of Her2 in the cells was evaluated.
Protein Assays. Cells were grown to 60-70% confluence and exposed to drugs or DMSO vehicle for the indicated time periods. Lysates were prepared using 50 mM Tris pH 7.4, 2% SDS and 10% glycerol lysis buffer. Protein concentration was determined using the BCA kit (Pierce Chemical Co.), according to the manufacturers instructions. Clarified protein lysates (20-50 mg) were electrophoretically resolved on denaturing SDS-PAGE, transferred to nitrocellulose and probed with the following primary antibodies: anti-Her2 (C-18), -Her3 (C-17), -Raf-1, -cyclin D1, -Rb (C-15) (Santa Cruz Biotechnology), anti-hsp90, -hsp70 (Stressgen) anti-Trap-1 (MSK81), anti-b-actin, -tubulin (Sigma), ER, anti-PI3K (p85) (Upstate Biotechnologies). […] Her2 degradation. Total Protein Assays. Cells were grown to 60-70% confluence and exposed to drugs or DMSO vehicle for the indicated time periods. Lysates were prepared using 50 mM Tris pH 7.4, 2% SDS and 10% glycerol lysis buffer. Protein concentration was determined using the BCA kit (Pierce Chemical Co.), according to the manufacturers instructions. Clarified protein lysates (20-50 μg) were electrophoretically resolved on denaturing SDS-PAGE, transferred to nitrocellulose and probed with the anti-Her2 primary antibody (C-18) (Santa Cruz Biotechnology).

[6] = system: BT-474; experiment: Growth inhibition, sulforhodamine B assay; assay type: cell-based; settings: Homo sapiens, 72 hours, unit inferred
Text: as §1

[7] = Homo sapiens, MCF7, read-out: IC50 Her2/MCF-7
[8] = Homo sapiens, MDA-MB-468, 72 hours
[9] = read-out: IC50 Her2/MCF-7, Her2 total protein degradation in MCF-7, unit inferred

T1 sequence (P08238 whole entry): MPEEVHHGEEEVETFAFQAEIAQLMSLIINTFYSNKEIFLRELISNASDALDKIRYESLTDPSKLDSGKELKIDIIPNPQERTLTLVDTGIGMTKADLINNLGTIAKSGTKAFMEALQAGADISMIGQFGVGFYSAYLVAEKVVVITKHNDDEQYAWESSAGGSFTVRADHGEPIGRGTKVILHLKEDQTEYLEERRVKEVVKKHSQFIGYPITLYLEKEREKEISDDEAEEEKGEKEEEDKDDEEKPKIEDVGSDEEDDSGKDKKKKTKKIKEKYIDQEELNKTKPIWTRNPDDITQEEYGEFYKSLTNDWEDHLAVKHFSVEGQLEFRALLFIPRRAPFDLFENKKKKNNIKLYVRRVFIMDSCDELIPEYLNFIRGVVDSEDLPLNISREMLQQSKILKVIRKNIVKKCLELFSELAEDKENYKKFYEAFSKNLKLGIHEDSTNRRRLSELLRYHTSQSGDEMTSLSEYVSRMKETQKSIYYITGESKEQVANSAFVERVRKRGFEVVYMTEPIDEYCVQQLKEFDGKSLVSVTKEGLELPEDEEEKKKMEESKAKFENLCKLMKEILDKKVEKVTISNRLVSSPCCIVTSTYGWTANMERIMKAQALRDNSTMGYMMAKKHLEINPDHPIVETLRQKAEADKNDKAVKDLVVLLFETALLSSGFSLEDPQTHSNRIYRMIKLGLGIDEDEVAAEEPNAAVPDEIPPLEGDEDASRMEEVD

IC50 ([1]; 72 hours)	IC50 ([2]; 72 hours)	binding to hsp 90-alpha [3]	binding to hsp 90-beta [4]	IC50 [5, 7]	EC50 [3]	IC50 [6]	EC50 [4]	IC50 [1, 8]	IC50 ([2]; Homo sapiens, MCF7, 72 hours)	IC50 MDA-468 ([1]; 72 hours, unit not given)	IC50 [5, 9]	Compound
66 µM	51 µM											CC=CCn1c(Cc2cc(OC)c(OC)c(OC)c2)nc2c(N)ncnc21 (mixture of isomers) [PU11]
		no detectable binding	weak binding									CCCCn1c(Oc2cc(OC)c(OC)c(OC)c2)nc2c(N)ncnc21 [Compound 69, 9-Butyl-8-(3,4,5-trimethoxy-phenoxy)-9H-purin-6-ylamine]
				25 µM	6 µM	29 µM	3.5 µM	30 µM	24 µM			CCCCn1c(Cc2cc(OC)c(OC)c(OC)c2)nc2c(N)nc(F)nc21 [PU3F, 2-Fluoro-9-butyl-8-(3,4,5-trimethoxy-benzyl)-9H-purin-6-ylamine]
				> 100 µM	> 100 µM		> 100 µM	21 µM	30 µM			CCCCn1c(Cc2c(Br)c(OC)c(OC)c(OC)c2Br)nc2c(N)ncnc21 [PU3PhBr2, 9-butyl-8-(2,6-dibromo-3,4,5-trimethoxy-benzyl)-9H-purin-6-ylamine]
				50 µM	35.3 µM	60 µM	11.7 µM		25 µM	INSOL		CCCCn1c(Cc2cc(OC)c(OC)c(OC)c2Br)nc2c(N)ncnc21 [PU3PhBr, 9-butyl-8-(2-bromo-3,4,5-trimethoxy-benzyl)-9H-purin-6-ylamine]
				25 µM	18.6 µM	30 µM	4.6 µM	36 µM	19 µM			CCCCn1c(Cc2cc(OC)c(OC)c(OC)c2Cl)nc2c(N)ncnc21 [PU3PhCl, 9-butyl-8-(2-chloro-3,4,5-trimethoxy-benzyl)-9H-purin-6-ylamine]
80 µM	64 µM				17.6 µM		75 µM				70 µM	CC/C=C\Cn1c(Cc2cc(OC)c(OC)c(OC)c2)nc2c(N)ncnc21 [PU7]
				30 µM	5 µM	35 µM	9.8 µM	25 µM	33 µM			C=CCCn1c(Cc2cc(OC)c(OC)c(OC)c2)nc2c(N)nc(F)nc21 [PU8F, 2-Fluoro-9-but-3-enyl-8-(3,4,5-trimethoxy-benzyl)-9H-purin-6-ylamine]
73 µM	41 µM				4 µM		10.6 µM				30 µM	C=CCCn1c(Cc2cc(OC)c(OC)c(OC)c2)nc2c(N)ncnc21 [PU8]
85 µM	69 µM				28 µM		114 µM					COc1cc(Cc2nc3c(N)ncnc3n2CCCC(C)C)cc(OC)c1OC [PU9]
75 µM	70 µM											COc1cc(Cc2nc3c(N)ncnc3n2C)cc(OC)c1OC [PU13]
130 µM	160 µM				62.3 µM		52.1 µM				> 100 µM	CCC(CC)Cn1c(Cc2cc(OC)c(OC)c(OC)c2)nc2c(N)ncnc21 [PU14]
70 µM	75 µM				12 µM		16.2 µM				70 µM	COc1cc(Cc2nc3c(N)ncnc3n2CC2CC2)cc(OC)c1OC [PU15]
				40 µM	30.7 µM	31 µM	9.2 µM	21 µM	41 µM			COc1cc(Cc2nc3c(N)nc(F)nc3n2CC2CCC2)cc(OC)c1OC [PU16F, 2-Fluoro-9-cyclobutylmethyl-8-(3,4,5-trimethoxy-benzyl)-9H-purin-6-ylamine]
68 µM	46 µM				17 µM		32 µM				60 µM	COc1cc(Cc2nc3c(N)ncnc3n2CC2CCC2)cc(OC)c1OC [PU16]
				20 µM	2.3 µM	25 µM	6.8 µM	21 µM	23 µM			COc1cc(Cc2nc3c(N)nc(F)nc3n2CC2CCCO2)cc(OC)c1OC (stereo not shown) [PU20F, 2-Fluoro-9-(tetrahydrofuran-2-ylmethyl)-8-(3,4,5-trimethoxy-benzyl)-9H-purin-6-ylamine]
				70 µM	4.4 µM		3.4 µM	80 µM	92 µM			COc1cc(Cc2nc3c(N)ncnc3n2CC2CCCO2)cc(OC)c1OC (stereo not shown) [PU20]

IC50 ([1]; 72 hours)	IC50 ([2]; 72 hours)	binding to hsp 90-alpha [3]	binding to hsp 90-beta [4]	IC50 [5, 7]	EC50 [3]	IC50 [6]	EC50 [4]	IC50 [1, 8]	IC50 ([2]; Homo sapiens, MCF7, 72 hours)	IC50 MDA-468 ([1]; 72 hours, unit not given)	IC50 [5, 9]	Compound
				35 µM	22 µM	43 µM	8.9 µM	19 µM	36 µM			CCCCCn1c(Cc2cc(OC)c(OC)c(OC)c2)nc2c(N)nc(F)nc21 [PU21F, 2-Fluoro-9-pentyl-8-(3,4,5-trimethoxy-benzyl)-9H-purin-6-ylamine]
				50 µM	22.5 µM		11.8 µM	73 µM	62 µM			CCCCCn1c(Cc2cc(OC)c(OC)c(OC)c2)nc2c(N)ncnc21 [PU21]
118 µM	80 µM											CCn1c(Cc2cc(OC)c(OC)c(OC)c2)nc2c(N)ncnc21 [PU22]
55 µM	47 µM				13.3 µM		9.5 µM				50 µM	CC/C=C/Cn1c(Cc2cc(OC)c(OC)c(OC)c2)nc2c(N)ncnc21 [PU23]
	82 µM											COc1cc(Cc2nc3c(N)ncnc3n2CC(OC)OC)cc(OC)c1OC [PU25]
				40 µM	22 µM	45 µM	15 µM	28 µM	44 µM			CC[C@H](C)Cn1c(Cc2cc(OC)c(OC)c(OC)c2)nc2c(N)nc(F)nc21 [PU26F, 2-Fluoro-9-[(S)-2-methyl-butyl]-8-(3,4,5-trimethoxy-benzyl)-9H-purin-6-ylamine]
71 µM	62 µM				25.3 µM		15.7 µM				70 µM	CCC(C)Cn1c(Cc2cc(OC)c(OC)c(OC)c2)nc2c(N)ncnc21 (stereo not shown) [PU26]
				15 µM	2 µM		1.3 µM	16 µM	16 µM			COc1cc(Cc2nc3c(N)nc(F)nc3n2CCOC(C)C)cc(OC)c1OC [PU29F, 2-Fluoro-9-(2-isopropoxy-ethyl)-8-(3,4,5-trimethoxy-benzyl)-9H-purin-6-ylamine]
				3 µM	0.65 µM	4.5 µM	0.52 µM	4.5 µM	5.4 µM			COc1cc(Cc2nc3c(N)nc(F)nc3n2CCOC(C)C)c(Cl)c(OC)c1OC [PU29FCl, 2-Fluoro-9-(2-isopropoxy-ethyl)-8-(2-chloro-3,4,5-trimethoxy-benzyl)-9H-purin-6-ylamine]
72 µM	39 µM				1.4 µM		1.7 µM				45 µM	COc1cc(Cc2nc3c(N)ncnc3n2CCOC(C)C)cc(OC)c1OC [PU29]
	111 µM				111 µM		47.8 µM				120 µM	COc1cc(Cc2nc3c(N)ncnc3n2CC2(C)CC2)cc(OC)c1OC [PU30]
70 µM	98 µM				16.6 µM		20.4 µM				100 µM	COc1cc(Cc2nc3c(N)ncnc3n2CC(C)C)cc(OC)c1OC [PU41]
				30 µM	4.1 µM	30 µM	5.3 µM	25 µM	25 µM			CCCn1c(Cc2cc(OC)c(OC)c(OC)c2)nc2c(N)nc(F)nc21 [PU43F, 2-Fluoro-9-propyl-8-(3,4,5-trimethoxy-benzyl)-9H-purin-6-ylamine]
54 µM	47 µM				6.6 µM		10.8 µM				50 µM	CCCn1c(Cc2cc(OC)c(OC)c(OC)c2)nc2c(N)ncnc21 [PU43]
				65 µM	7.9 µM	60 µM	13.8 µM	35 µM	64 µM			COCCn1c(Cc2cc(OC)c(OC)c(OC)c2)nc2c(N)nc(F)nc21 [PU44F, 2-Fluoro-9-(2-methoxy-ethyl)-8-(3,4,5-trimethoxy-benzyl)-9H-purin-6-ylamine]
79 µM	65 µM				4.1 µM		12.4 µM				85 µM	COCCn1c(Cc2cc(OC)c(OC)c(OC)c2)nc2c(N)ncnc21 [PU44]

Compound	IC50 ([1]; 72 hours)	IC50 ([2]; 72 hours)	binding to hsp 90-alpha [3]	binding to hsp 90-beta [4]	IC50 [5, 7]	EC50 [3]	IC50 [6]	EC50 [4]	IC50 [1, 8]	IC50 ([2]; Homo sapiens, MCF7, 72 hours)	IC50 MDA-468 ([1]; 72 hours, unit not given)	IC50 [5, 9]
C#CCCCn1c(Cc2cc(OC)c(OC)c(OC)c2)nc2c(N)nc(F)nc21 [PU24F, 2-Fluoro-9-pent-4-ynyl-8-(3,4,5-trimethoxy-benzyl)-9H-purin-6-ylamine]					5 µM	6.2 µM	14 µM	0.7 µM	15 µM	11 µM		
C#CCCCn1c(Cc2cc(OC)c(OC)c(OC)c2)nc2c(N)ncnc21 [PU24]					20 µM	2.6 µM		1.5 µM	41 µM	24 µM		
